# From US9359589B2, “Use of at least one chelating agent introduced into the culture medium of magnetotactic bacteria in order to stimulate the growth thereof” (UNIVERSITE PIERRE ET MARIE CURIE (PARIS 6), priority 2011, dated 2016)
# Legend:
# Format in all cases: cell-based
# [1] = tested on: Magnetotactic bacteria of the Magnetospirillum magneticum species, strain AMB-1; assay: Magnetosome production after 7 days of culture (iron oxide concentration of extracted magnetosome chains, absorption at 480 nm)
# Protocol: (§1) Magnetotactic bacteria of the Magnetospirillum magneticum species, strain AMB-1, available from ATCC under the reference ATCC No. 700274, were used.
# (§2) In order to prepare the culture medium containing the various iron-chelating agents, said agents were introduced at various concentrations into the culture medium described above (section 1.2).
# The cells were harvested during the stationary phase.
# The cells are harvested during the stationary phase by centrifugation at 4000 g for 20 minutes. The supernatant is removed and the cells are resuspended in 3 ml of deionized water.
# To extract the magnetosome chains, 1 ml of cell suspension obtained as described above is again centrifuged and then resuspended in a 10 mM Tris-HCl buffer at pH 7.4, and then the cell suspension is subjected to a sonication step for 120 minutes at a power of 30 W, in order to lyze the cells and to release the magnetosome chains. Sonication periods of 60 and 180 minutes can also be used. For a sonication period of less than 60 minutes, the bacteria are not all lyzed. For a sonication period of greater than 180 minutes, the beginnings of aggregation are observed owing to the presence of individual magnetosomes which are aggregated.
# After sonication, the magnetosome chain suspension is separated by placing a powerful neodynium magnet (0.1-1 T) in proximity to the tube, and the magnetic material is then recovered in the form of a pellet.
# The maghemite concentration of a suspension of magnetosome chains extracted from magnetotactic bacteria was measured using the measurement of the absorption at 480 nm of this suspension. The method of calibration between the value of the absorption and the amount of maghemite is described elsewhere (PCT/EP2010/067765). These measurements were carried out in order to determine the amount of magnetosome chains produced by the magnetotactic bacteria after a given growth time. The amounts of magnetosome chains produced in the absence and in the presence of the chelating agents were then compared.
# (§3) In this example, the magnetotactic bacteria were cultured in the presence of various chelating agents and harvested after 7 days. The absorption and the iron oxide concentration of the magnetosome chains extracted from the bacteria were then measured.
# [2] = tested on: Magnetotactic bacteria of the Magnetospirillum magneticum species, strain AMB-1; assay: Growth of magnetotactic bacteria after 7 days of culture in 1 liter of medium with chelating agent (absorption at 565 nm); details: for absorption measured at 565 nm of bacterial suspension compared with bacteria cultured in the absence of chelating agent: 1 liter
# Protocol: as §1
# The cells were placed in culture under microanaerobic conditions, i.e. in a culture medium which has not been degassed but which is closed and has no contact with oxygen. The bacteria were cultured at laboratory temperature (approximately 25° C.) in a liquid culture in a slighly modified MSGM medium (medium ATCC 1653), the makeup of which is described hereinafter.
# For a volume of one liter, the culture medium contains 0.68 g of monobasic potassium phosphate, 0.85 g of sodium succinate, 0.57 g of sodium tartrate, 0.083 g of sodium acetate, 225 μl of resazurin at 0.2%, 0.17 g of sodium nitrate, 0.04 g of L-ascorbic acid, 2 ml of a 10 mM iron quinate solution, 10 ml of a Woolf vitamin solution and 5 ml of a Woolf mineral solution.
# as §2, §3
# [3] = tested on: Magnetospirillum magneticum; assay: Magnetic moment of suspensions of magnetotactic bacteria (SQUID, 500 Oe or 1000 Oe) on D7, D8, D9
# Protocol: The magnetic moment of various suspensions of magnetotactic bacteria deposited on blotting paper, under the application of a magnetic field of 500 Oe or of 1000 Oe, was also measured. The magnetic moment was measured for 10 ml of suspension of magnetotactic bacteria harvested at various days of growth, centrifuged, and then resuspended in 100 μl of distilled water. These 100 μl containing the magnetotactic bacteria are then redeposited on nonmagnetic absorbent paper which itself is inserted into a capsule that is placed in the magnetometer in order to carry out the magnetic measurements. […]
# Cultures of Magnetospirillum magneticum were prepared as described in example 1. […] The cultures in suspension were placed at ambient temperature (approximately 25° C.) and the growth of the bacteria over time was monitored by measuring O.D. at the wavelength of 565 nanometers.
# The bacteria were cultured for 12 days in a tube and the absorbance over the whole of the spectrum ranging from 400 to 700 nanometers was measured, respectively, (i) on the second day (D2) after inoculation, (ii) on the third day (D3) after inoculation, (iii) on the fourth day (D4) after inoculation, (iv) on the seventh day (D7) after inoculation, (v) on the eighth day (D8) after inoculation and (vi) on the ninth day (D9) after inoculation. […]
# [4] = tested on: Magnetospirillum magneticum; assay: Growth over time of magnetotactic bacteria in 10 ml tubes with chelating agent (absorbance, O.D. at 565 nm, D2-D9); details: for effect on cell growth at high concentration: 400 μM; for effect on the growth of the magnetotactic bacteria (absorbance compared with cultures without the agent): 0.4-400 μM, D2 to D9, 10 ml tubes; for growth curves (fitted absorption, first 7 days) relative to bacteria cultured in the absence of the agent: all concentrations except 400 μM; for period of culture during which the effects are greatest: exponential growth phase; for multiplication of the bacteria during the first 4 days: first 4 days of growth
# Protocol: Cultures of Magnetospirillum magneticum were prepared as described in example 1. The bacteria were cultured in 10 milliliter tubes. A volume of 100 microliters of culture medium was inoculated, at time “D0” (Day 0), with 0.1×10^6 bacterial cells. The cultures in suspension were placed at ambient temperature (approximately 25° C.) and the growth of the bacteria over time was monitored by measuring O.D. at the wavelength of 565 nanometers.
# The following series of culture samples were prepared: • samples of control culture, comprising the bacterial cells in the culture medium free of chelating agent; • a series of culture samples containing the chelating agent rhodamine B, at increasing concentrations of 0.4 μM, 4 μM, 40 μm and 400 μM; • a series of culture samples containing the chelating agent ascorbic acid, at increasing concentrations of 0.4 μM, 4 μM, 40 μM and 400 μM; • a series of culture samples containing the chelating agent erythrosine, at increasing concentrations of 0.4 μM, 40 μM and 400 μM; • a series of culture samples containing the chelating agent folic acid, at increasing concentrations of 0.4 μM, 4 μM, 40 μM and 400 μM;
# The bacteria were cultured for 12 days in a tube and the absorbance over the whole of the spectrum ranging from 400 to 700 nanometers was measured, respectively, (i) on the second day (D2) after inoculation, (ii) on the third day (D3) after inoculation, (iii) on the fourth day (D4) after inoculation, (iv) on the seventh day (D7) after inoculation, (v) on the eighth day (D8) after inoculation and (vi) on the ninth day (D9) after inoculation. The magnetic moments of various suspensions of magnetotactic bacteria deposited on blotting paper were measured on days D7, D8 and D9.
Molecule,magnetosome production (iron oxide concentration) compared with the control bacteria ([1]; chelating agent 0.4 μM),absorption measured at 565 nm of bacterial suspension compared with bacteria cultured in the absence of chelating agent ([2]; chelating agent 4 μM),absorption measured at 565 nm of bacterial suspension compared with bacteria cultured in the absence of chelating agent ([2]; chelating agent 40 μM),magnetosome production (iron oxide concentration) compared with the control bacteria ([1]; chelating agent 4 μM),magnetosome production (iron oxide concentration) compared with the control bacteria ([1]; chelating agent 40 μM),absorption measured at 565 nm of bacterial suspension compared with bacteria cultured in the absence of chelating agent ([2]; chelating agent 0.4 μM),also measured
O=S(=O)(O)CCCN1CCOCC1 [3-(N-morpholino)propanesulfonic acid],increased,greater,greater,,,,
O=S(=O)(O)CCCNC1CCCCC1 [3-[cyclohexylamino]-1-propanesulfonic acid],increased,greater,greater,increased,increased,greater,
"O=C(O)CN(CCN(CC(=O)O)CC(=O)O)CC(=O)O [EDTA, ethylenediaminetetraacetic acid]",increased,greater,greater,increased,,greater,
"NCCCC(O)(P(=O)(O)O)P(=O)(O)O [alendronate, reference compound]",increased,,,increased,increased,,
Nc1ccccc1C(=O)O [anthranilic acid],increased,,,,,greater,
O=C1O[C@H]([C@@H](O)CO)C(O)=C1O [ascorbic acid],,,,,,,"concentration range of stimulated magnetosome production compared with rhodamine B [3]: wider concentration range; effect on bacterial growth compared with rhodamine B [4]: similar; effect on cell growth at high concentration [4]: rather unfavorable; effect on the growth of the magnetotactic bacteria (absorbance compared with cultures without the agent) [4]: stimulates the growth; concentration giving the most pronounced effect on growth ([4]; after 4 days of culture): 0.4 µM; growth curves (fitted absorption, first 7 days) relative to bacteria cultured in the absence of the agent [4]: above; period of culture during which the effects are greatest [4]: first four days"
O=C(O)CN(CC(=O)O)Cc1cc2c(cc1O)Oc1cc(O)c(CN(CC(=O)O)CC(=O)O)cc1C21OC(=O)c2ccccc21 [calcein],,greater,greater,increased,increased,,
O=C(O)CC(O)(CC(=O)O)C(=O)O [citric acid],,greater,greater,increased,increased,,
O=C1OC2(c3ccccc31)c1cc(I)c(O)c(I)c1Oc1c2cc(I)c(O)c1I [erythrosine],,,,,,,absorption compared with control bacteria on day D4 ([4]; 0.4 μM): greater; absorption compared with control bacteria on day D4 ([4]; 4 μM): greater; effect on the growth of the magnetotactic bacteria (absorbance compared with cultures without the agent) [4]: stimulates the growth of the magnetotactic bacteria less than rhodamine B or ascorbic acid; absorption compared with control bacteria ([4]; the other days of culture and the other concentrations): either similar to or lower
Nc1nc2ncc(CNc3ccc(C(=O)N[C@@H](CCC(=O)O)C(=O)O)cc3)nc2c(=O)[nH]1 [folic acid],,,,,,,"multiplication of the bacteria during the first 4 days ([4]; 0.4 μM): multiply in greater number; growth of the bacteria during the first two days ([4]; 4 μM, first two days of growth): grow more rapidly; multiplication of the bacteria during the first 4 days ([4]; 40 μM): multiply in greater number; effect on the growth of the magnetotactic bacteria (absorbance compared with cultures without the agent) [4]: stimulates the growth"
"NCCCCCC(O)(P(=O)(O)O)P(=O)(O)O [neridronate, reference compound]",,,greater,,,,
NC(=O)c1cccnc1 [nicotinamide],,,greater,,,,absorption relative to that of the control bacteria ([2]; chelating agent 40 μM): 1.5-2 times
CCN(CC)c1ccc2c(-c3ccccc3C(=O)O)c3ccc(=[N+](CC)CC)cc-3oc2c1 [rhodamine B],increased,greater,greater,increased,increased,greater,"effect on cell growth at high concentration [4]: rather unfavorable; effect on the growth of the magnetotactic bacteria (absorbance compared with cultures without the agent) [4]: stimulates the growth; growth curves (fitted absorption, first 7 days) relative to bacteria cultured in the absence of the agent [4]: above; period of culture during which the effects are greatest [4]: first six days"
dextran,,,greater,,increased,,
hemoglobin,increased,greater,greater,increased,increased,greater,factor of increase of iron oxide production ([1]; 0.4 μM in the culture medium): 7-8; factor of increase of iron oxide production ([1]; 4 μM in the culture medium): 7-8
